Assay results reported in patent US6472165B1, “Modulatory binding site in potassium channels for screening and finding new active ingredients” (Arzneimittelwerk Dresden GmbH, priority 1999, dated 2002).

How the values were obtained:
[1] = target: T1, Kv4.3 (Homo sapiens, UniProt Q9UK17); conditions: literature, Wang et al.; cited from earlier work
T1 sequence (Q9UK17 1-655): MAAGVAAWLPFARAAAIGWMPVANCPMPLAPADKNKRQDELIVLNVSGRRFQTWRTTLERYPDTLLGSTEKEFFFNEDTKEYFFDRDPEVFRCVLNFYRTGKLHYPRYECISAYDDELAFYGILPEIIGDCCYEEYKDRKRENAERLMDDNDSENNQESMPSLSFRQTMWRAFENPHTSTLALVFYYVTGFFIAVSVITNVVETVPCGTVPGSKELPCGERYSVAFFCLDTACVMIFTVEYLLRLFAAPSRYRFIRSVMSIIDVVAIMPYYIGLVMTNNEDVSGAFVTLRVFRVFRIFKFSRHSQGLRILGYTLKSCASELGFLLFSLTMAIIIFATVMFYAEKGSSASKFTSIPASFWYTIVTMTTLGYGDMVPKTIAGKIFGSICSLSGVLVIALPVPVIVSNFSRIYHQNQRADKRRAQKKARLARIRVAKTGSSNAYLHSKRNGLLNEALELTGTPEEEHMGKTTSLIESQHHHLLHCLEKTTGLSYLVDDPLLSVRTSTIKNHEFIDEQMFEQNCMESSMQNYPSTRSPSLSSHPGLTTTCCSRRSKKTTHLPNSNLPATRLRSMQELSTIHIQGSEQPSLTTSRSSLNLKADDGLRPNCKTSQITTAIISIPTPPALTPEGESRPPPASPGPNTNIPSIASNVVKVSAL

[2] = target: KCNQ1 channel (Homo sapiens, UniProt P51787); conditions: literature, Wang et al.; cited from earlier work
[3] = target: M channel (=KCNQ2+KCNQ3) (Homo sapiens, UniProt O43525+O43526); conditions: literature, Wang et al.; cited from earlier work
[4] = target: T2, eag1 (Homo sapiens, UniProt O95259); conditions: literature, Wang et al.; cited from earlier work
T2 sequence (O95259 1-989): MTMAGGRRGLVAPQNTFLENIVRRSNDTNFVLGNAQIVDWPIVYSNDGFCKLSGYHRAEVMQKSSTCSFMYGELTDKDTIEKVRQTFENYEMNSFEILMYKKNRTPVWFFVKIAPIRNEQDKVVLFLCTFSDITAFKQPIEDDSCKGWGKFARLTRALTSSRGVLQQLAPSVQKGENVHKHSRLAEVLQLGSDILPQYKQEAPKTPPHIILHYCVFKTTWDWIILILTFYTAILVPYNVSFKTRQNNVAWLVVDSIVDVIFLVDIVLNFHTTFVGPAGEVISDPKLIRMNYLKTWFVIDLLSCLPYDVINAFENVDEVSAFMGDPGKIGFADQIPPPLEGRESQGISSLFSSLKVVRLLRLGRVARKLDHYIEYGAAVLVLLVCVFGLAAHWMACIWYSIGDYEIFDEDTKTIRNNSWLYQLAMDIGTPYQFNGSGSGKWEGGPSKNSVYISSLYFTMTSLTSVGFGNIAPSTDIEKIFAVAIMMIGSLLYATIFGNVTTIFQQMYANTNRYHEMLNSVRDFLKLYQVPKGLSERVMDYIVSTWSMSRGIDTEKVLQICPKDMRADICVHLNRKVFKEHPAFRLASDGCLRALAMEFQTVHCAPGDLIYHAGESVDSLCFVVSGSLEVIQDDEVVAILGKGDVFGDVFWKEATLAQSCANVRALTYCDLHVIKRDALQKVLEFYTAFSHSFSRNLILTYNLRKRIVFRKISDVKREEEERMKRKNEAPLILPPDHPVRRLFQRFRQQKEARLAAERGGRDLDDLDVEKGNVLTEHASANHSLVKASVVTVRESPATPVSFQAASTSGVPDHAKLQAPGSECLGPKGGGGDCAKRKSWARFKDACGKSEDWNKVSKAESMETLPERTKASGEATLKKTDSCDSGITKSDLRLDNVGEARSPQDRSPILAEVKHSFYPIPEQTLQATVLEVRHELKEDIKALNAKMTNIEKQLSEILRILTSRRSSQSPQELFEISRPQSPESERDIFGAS

[5] = target: erg1 (Homo sapiens, UniProt Q12809); conditions: literature, Wang et al.; cited from earlier work
[6] = tested on: elk1; conditions: literature, Wang et al.; cited from earlier work
[7] = target: Kv1.2 (Homo sapiens, UniProt P16389); conditions: literature, Wang et al.; cited from earlier work
[8] = target: T3, erg3 (Homo sapiens, UniProt Q9NS40); conditions: literature, Wang et al.; cited from earlier work
T3 sequence (Q9NS40 1-1196): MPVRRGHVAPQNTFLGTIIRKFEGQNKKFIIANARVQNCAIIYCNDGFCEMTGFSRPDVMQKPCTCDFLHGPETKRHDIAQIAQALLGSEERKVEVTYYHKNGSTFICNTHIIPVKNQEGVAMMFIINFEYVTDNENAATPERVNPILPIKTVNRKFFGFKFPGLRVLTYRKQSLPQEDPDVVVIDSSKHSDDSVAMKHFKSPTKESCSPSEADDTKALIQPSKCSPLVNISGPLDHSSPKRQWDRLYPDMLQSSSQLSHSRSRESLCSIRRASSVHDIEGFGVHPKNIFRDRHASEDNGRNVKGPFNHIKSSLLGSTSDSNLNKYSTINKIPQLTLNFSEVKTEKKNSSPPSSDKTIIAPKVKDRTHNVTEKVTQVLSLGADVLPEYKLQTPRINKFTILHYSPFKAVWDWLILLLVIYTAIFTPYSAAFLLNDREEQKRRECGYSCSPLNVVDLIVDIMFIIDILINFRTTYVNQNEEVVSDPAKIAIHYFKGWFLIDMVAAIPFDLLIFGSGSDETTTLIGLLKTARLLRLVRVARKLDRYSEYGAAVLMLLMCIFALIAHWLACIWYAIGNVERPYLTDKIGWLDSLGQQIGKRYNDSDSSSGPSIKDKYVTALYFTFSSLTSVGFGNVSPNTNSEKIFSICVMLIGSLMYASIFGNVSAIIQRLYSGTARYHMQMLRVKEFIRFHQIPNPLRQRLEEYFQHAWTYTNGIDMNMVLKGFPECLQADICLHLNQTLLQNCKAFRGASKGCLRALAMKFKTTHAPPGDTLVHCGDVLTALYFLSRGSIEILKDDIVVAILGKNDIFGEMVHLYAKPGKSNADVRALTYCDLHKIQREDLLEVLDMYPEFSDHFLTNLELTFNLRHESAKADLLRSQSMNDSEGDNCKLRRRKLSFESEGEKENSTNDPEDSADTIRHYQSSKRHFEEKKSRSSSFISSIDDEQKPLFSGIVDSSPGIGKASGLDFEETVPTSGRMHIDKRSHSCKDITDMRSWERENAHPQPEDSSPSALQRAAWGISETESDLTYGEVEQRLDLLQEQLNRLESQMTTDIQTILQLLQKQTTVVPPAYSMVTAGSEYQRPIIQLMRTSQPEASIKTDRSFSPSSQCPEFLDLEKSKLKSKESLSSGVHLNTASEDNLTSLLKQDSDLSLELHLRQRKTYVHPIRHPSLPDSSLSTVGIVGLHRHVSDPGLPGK

[9] = target: T4, r-erg1 (Rattus norvegicus, UniProt O08962); test: Effect of retigabine on cloned potassium channels, patch clamp; format: cell-based; conditions: r-erg1, CHO cells
T4 construct: expressed in transfected cells; host or cells: CHO cells (liposome cDNA transfection)
T4 sequence (O08962 1-1163): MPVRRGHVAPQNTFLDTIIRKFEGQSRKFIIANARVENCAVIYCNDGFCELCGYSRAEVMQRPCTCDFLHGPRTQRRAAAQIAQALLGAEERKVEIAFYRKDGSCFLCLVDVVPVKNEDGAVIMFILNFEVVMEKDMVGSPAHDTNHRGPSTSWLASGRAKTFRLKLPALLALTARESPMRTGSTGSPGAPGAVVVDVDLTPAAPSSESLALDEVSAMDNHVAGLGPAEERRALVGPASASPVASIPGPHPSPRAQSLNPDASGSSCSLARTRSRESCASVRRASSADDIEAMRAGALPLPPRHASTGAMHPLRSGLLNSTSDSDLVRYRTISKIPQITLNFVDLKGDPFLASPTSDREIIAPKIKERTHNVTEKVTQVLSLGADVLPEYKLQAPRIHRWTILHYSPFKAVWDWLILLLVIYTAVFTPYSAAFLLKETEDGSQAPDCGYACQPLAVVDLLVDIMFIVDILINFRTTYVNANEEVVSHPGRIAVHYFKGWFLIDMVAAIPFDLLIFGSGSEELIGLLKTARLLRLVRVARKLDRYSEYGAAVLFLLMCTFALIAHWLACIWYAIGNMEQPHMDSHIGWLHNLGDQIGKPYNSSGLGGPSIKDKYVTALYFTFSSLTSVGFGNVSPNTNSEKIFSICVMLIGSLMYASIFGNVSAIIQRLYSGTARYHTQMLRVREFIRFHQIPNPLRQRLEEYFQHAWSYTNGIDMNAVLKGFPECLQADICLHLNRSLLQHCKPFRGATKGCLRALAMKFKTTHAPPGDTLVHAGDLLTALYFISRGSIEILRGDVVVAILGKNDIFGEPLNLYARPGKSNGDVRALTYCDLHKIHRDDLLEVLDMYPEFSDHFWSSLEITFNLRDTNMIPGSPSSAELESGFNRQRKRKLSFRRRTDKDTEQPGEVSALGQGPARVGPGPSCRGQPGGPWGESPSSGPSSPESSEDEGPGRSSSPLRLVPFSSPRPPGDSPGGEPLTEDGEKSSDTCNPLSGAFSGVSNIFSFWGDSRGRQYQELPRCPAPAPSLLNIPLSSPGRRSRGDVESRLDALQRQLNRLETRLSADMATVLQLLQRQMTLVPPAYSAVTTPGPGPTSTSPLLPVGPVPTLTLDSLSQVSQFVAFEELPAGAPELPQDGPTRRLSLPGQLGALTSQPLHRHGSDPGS
Method: For the experiments with xenopus oocytes, the experimental amounts known to be successful for transfections i.e. 500 pg to 37 ng, of hereditary information (cRNA) for the channel to be investigated, which is known from the literature, present as clone and replicated by means of a polymerase chain reaction, was applied by pressure injection into the egg cells. After this treatment, the oocytes were placed in a nutrient medium and kept alive. After one week, the egg cells were brought individually into a recording chamber and, using the two-electrode voltage clamp method, investigated electrophysiologically. For this purpose, the egg cells, starting out from a holding potential of −80 mV, were hyperpolarized and depolarized for, in each case, 2 seconds, in 10 mV steps to different membrane potentials between −130 and +30 mV and the resulting membrane current was measured. These experiments were carried out in the presence of a control solution as well as of 1, 10 and 100 μM of retigabine and the current voltage curves obtained were compared. […] In addition, in accordance with a method already described (Rundfeldt, 1999b), retigabine was added at a concentration of 10 μM to cells, which were slightly depolarized (−60 or −50 mV), and the current induced thereby was quantified. The latter method was employed in order to quantify the currents shown in the Table and induced by retigabine. […]

erg1, sequence (Q12809 whole entry): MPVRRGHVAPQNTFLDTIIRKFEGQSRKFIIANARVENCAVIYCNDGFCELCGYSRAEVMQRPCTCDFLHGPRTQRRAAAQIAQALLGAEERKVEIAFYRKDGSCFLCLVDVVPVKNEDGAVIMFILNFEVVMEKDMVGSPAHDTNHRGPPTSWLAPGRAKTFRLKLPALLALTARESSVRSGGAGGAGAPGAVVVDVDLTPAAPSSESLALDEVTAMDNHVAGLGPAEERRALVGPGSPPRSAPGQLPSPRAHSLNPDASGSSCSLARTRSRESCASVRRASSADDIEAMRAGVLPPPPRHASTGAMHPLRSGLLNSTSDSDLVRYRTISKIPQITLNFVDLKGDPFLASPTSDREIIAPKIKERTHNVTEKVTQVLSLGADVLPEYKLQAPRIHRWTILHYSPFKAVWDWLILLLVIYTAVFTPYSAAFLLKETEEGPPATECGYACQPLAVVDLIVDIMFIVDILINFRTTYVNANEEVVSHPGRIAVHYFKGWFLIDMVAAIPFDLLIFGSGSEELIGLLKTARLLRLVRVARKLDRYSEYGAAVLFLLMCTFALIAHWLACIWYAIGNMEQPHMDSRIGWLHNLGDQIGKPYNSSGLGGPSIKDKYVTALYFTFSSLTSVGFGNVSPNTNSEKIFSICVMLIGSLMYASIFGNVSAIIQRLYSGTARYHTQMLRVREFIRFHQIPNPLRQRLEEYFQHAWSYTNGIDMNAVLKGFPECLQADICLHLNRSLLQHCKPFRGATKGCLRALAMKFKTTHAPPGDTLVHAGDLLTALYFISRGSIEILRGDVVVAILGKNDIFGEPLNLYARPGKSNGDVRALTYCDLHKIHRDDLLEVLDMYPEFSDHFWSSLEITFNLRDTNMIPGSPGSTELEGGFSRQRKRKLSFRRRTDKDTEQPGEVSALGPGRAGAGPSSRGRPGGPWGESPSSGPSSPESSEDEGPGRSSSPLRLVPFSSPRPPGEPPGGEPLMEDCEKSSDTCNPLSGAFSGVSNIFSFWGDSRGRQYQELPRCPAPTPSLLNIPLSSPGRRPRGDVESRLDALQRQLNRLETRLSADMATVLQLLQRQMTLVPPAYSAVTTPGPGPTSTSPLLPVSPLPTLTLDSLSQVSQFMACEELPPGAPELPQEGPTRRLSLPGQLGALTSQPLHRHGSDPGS
Kv1.2, sequence (P16389 whole entry): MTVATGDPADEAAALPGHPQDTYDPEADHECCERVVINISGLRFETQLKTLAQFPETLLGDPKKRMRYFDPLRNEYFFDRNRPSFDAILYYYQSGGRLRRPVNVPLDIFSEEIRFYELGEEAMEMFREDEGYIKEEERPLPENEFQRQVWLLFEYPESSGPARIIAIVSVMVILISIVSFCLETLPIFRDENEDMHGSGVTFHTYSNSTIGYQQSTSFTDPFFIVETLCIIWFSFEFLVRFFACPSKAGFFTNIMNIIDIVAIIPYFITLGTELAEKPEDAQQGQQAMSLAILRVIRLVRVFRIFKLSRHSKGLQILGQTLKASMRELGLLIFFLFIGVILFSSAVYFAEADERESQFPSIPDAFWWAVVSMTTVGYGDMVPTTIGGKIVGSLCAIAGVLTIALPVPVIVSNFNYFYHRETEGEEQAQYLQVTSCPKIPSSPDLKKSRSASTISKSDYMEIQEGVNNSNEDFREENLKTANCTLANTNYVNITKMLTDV

Compound	Effect on Kv4.3, with affinity similar to that for the M channel [1]	Effect on KCNQ1, with affinity similar to that for the M channel [2]	Effect on the M channel [3]	Effect on eag1, with affinity similar to that for the M channel [4]	Effect on erg1, with affinity similar to that for the M channel [5]	Effect on elk1, with affinity similar to that for the M channel [6]	Effect on Kv1.2, with affinity similar to that for the M channel [7]	Effect on erg3, with affinity similar to that for the M channel [8]	Effect of 10 μM of Retigabine [9]
O=C1c2ccccc2C(Cc2ccncc2)(Cc2ccncc2)c2ccccc21 [XE991]	inhibits	inhibits	block						
O=C1N(c2ccccc2)c2ccccc2C1(Cc1ccncc1)Cc1ccncc1 [linopirdine]	blocked	blocked	blocks	blocked	blocked	blocked	blocked	blocked	
CCOC(=O)Nc1ccc(NCc2ccc(F)cc2)cc1N [retigabine, 2-amino-4-(4-fluorobenzylamino)-1-ethoxycarbonyl-aminobenzene]									No effect
